Experimental findings from patent US20240052300A1, “DIFFUSION GRADIENT ASSAY FOR ANTI-CD3-CONTAINING MOLECULES” (priority 2020, published 2024) are described below.

The test system of data set [1] is recombinant canonical BiTE® protein. In words: Size exclusion chromatography with fluorescence detection of CD3-AF488 bound to secreted BiTE. The class given is binding. The note with it: secretion medium mixed with reagent, capture chromatography, FIG. 1B. As for the experimental part:
100 μl of 0.2 μm filtrated mammalian cell culture samples containing expressed BiTE® constructs featuring human CD3e binding binders were mixed with 2.5 μl peptide-fluorochrome conjugate and transferred into autosampler vials. The vials were placed onto an autosampler connected to an Ultra High Performance Liquid Chromatography ACQUITY UPLC device (Waters, Eschborn, Germany) featuring a fluorescence detector. An analytical size exclusion chromatography BEH200 SEC 1.7 μm column (Waters, Eschborn, Germany) was connected to the UHPLC and equilibrated with a water-based buffer system containing 10 mM Citric Acid, 75 mM Lysine HCl, adjusted to pH 7.0. 10 μl of each prepared sample were applied to the column and eluted using isocratic elution. Detection was performed by using fluorescence detection at 490 nm excitation and 520 nm emission wavelength. […] Both, unpurified secretion medium and purified material were subsequently analyzed by size exclusion chromatography equipped with fluorescence detector (FIG. 1B, C). This setup allowed monitoring of the elution profile of the CD3-AF488 peptide and its bound protein complexes in the context of the whole protein content present in analyzed samples. The UV absorbance (A280 nm) elution profile of purified material allowed for identification of BiTE® monomers, dimers and HMW species (FIG. 1B).
(In general: In gel filtration, larger molecules generally elute earlier.)

In another data set the test system is BiTE®-Fc fusion. In words: On-chip CD3 diffusion gradient assay, BiTE-Fc secreting cells. The following applies: day 5 on chip; FIG. 3A,B.
Data set [2] relates to BiTE® recombinant protein. As for the experimental part: The ability of the CD3-AF594 peptide conjugate to be used for diffusion gradient assays to detect secretion of recombinant CD3 binders on Berkeley Light's nanofluidic chip (FIG. 2A) was assessed next. Cells expressing the BiTE® modality were loaded onto a BLI platform using a standard cell line development workflow. Single cells were deposited in Nanopens™, and subsequently cultured under perfusion for the duration of 6 days. The CD3 reagent was used in a diffusion gradient assay using optimized settings as described herein.

The next data set relates to IgG-fusion protein. The following applies: day 5 on chip; FIG. 3A-C.

Side-chain parts run from the residue outwards. [ ]: non-standard residue; d: D form. pGlu = O=C1CC[C@@H](C(=O)O)N1

Description for BiTE®-Fc fusion: (§1) The CD3 diffusion assay peptide reagent was resuspended in DMSO at 1 mg/ml and stored protected from light at −20° C. for long term storage. For short term storage the assay reagent was further diluted to 4 μg/ml in PBS and stored at 4° C. Prior executing the diffusion gradient assay to detect BiTE® secretion on nanofluidic chip the CD3 diffusion assay reagent was diluted in cell culture medium to 0.2 μg/ml concentration, filtered through 22 μm filter, transferred to 96 well plate and incorporated on the chip. The assay reagent was perfused on the chip at 0.014 μl/sec flow rate for the duration of 45 minutes. In FIG. 4, once the equilibration step was complete the assay reagent was flushed out with 250 μl of cell culture medium at a 20/sec flow rate followed by an additional flush with the cell culture medium at the 0.1667 μl/sec flow rate for the duration of 20 mins. The chip was then imaged through TRED filter cube using 900 ms exposure time and 100% illumination settings.
(§2) In FIG. 2, the CD3 diffusion assay reagent was used at 0.125 μg/ml final concentration. […]
(§3) For CD3 diffusion assays shown in FIGS. 3 and 4, the reference assay was run on an empty chip in order to generate reference images used for normalizing the CD3 diffusion assay score against chip position effects and background fluorescence signal. […]
(§4) Next, the specificity of the BiTE® diffusion gradient assay was assessed. […]
Description for IgG-fusion protein: as §1, §2, §3, §4

In the case of “CD3-AF488 peptide ([pGlu]DGNEEMGGC([C5 maleimide-Alexa Fluor 488])-NH2)”, in data set [1], the “complex formation with BiTE® recombinant protein (fluorescent SEC elution profile)” value is listed as “formed a complex with the BiTE® recombinant protein”.
Consider “Pyroglutamate-DGNEEMGGC-AF594 [CD3-AF594 conjugate]”, for which the “detection of secretion of the BiTE®-Fc protein product” value with BiTE®-Fc fusion is on record as “detected”. The “fluorescent signal in pens with BiTE® expressing cells vs empty pens” value in data set [2] (6 days perfusion culture, reagent 0.125 μg/ml, FIG. 2B) is reported as “High fluorescent signal”. In addition, the “detection of secretion of BiTE® expressing cell lines” value in data set [2] (day 5 on chip, FIG. 3A-C) is “efficiently detected secretion”. Further, in the data set with IgG-fusion protein, the “detection of secretion of the IgG-fusion protein” value is recorded as “failed to detect secretion”.
